Patent publication US20100004250A1, “PTERIDINE DERIVATIVES AS POLO-LIKE KINASE INHIBITORS USEFUL IN THE TREATMENT OF CANCER” (CHROMA THERAPEUTICS LTD., priority 2006, published 2010)

Biological target: T1, PLK1 (Homo sapiens, UniProt P53350)
T1 construct: purchased Invitrogen (Paisley, UK), assay service
Assay: PLK1 enzyme assay (Z'-LYTE, Invitrogen)
Type: biochemical
Details: ATP at or close to Km, 60 minute kinase reaction; read-out: Inhibitor Activity vs PLK1
Method: The ability of compounds to inhibit PLK-1 kinase activity was measured in an assay performed by Invitrogen (Paisley, UK). The Z′-LYTE™ biochemical assay employs a fluorescence-based, coupled-enzyme format and is based on the differential sensitivity of phosphorylated and non-phosphorylated peptides to proteolytic cleavage. The peptide substrate is labelled with two fluorophores—one at each end—that make up a FRET pair. In the primary reaction, the kinase transfers the gamma-phosphate of ATP to a single serine or threonine residue in a synthetic FRET-peptide. In the secondary reaction, a site-specific protease recognizes and cleaves non-phosphorylated FRET-peptides. Phosphorylation of FRET-peptides suppresses cleavage by the Development Reagent. Cleavage disrupts FRET between the donor (i.e., coumarin) and acceptor (i.e., fluorescein) fluorophores on the FRET-peptide, whereas uncleaved, phosphorylated FRET-peptides maintain FRET. A […] method, which calculates the ratio (the Emission Ratio) of donor emission to acceptor emission after excitation of the donor fluorophore at 400 nm, is used to quantitate reaction progress.
The final 10 μl Kinase Reaction consists of 2.8-25.3 ng PLK1, 2 μM Ser/Thr 16 Peptide substrate and ATP in 50 mM HEPES pH 7.5, 0.01% BRIJ-35, 10 mM MgCl2, 1 mM EGTA. The assay is performed at an ATP concentration at, or close to, the Km. After the 60 minute Kinase Reaction incubation at room temperature, 5 μl of a 1:8 dilution of Development Reagent is added. The assay plate is incubated for a further 60 minutes at room temperature and read on a fluorescence plate reader.
Duplicate data points are generated from a ⅓ log dilution series of a stock solution of test compound in DMSO. Nine dilutions steps are made from a top concentration of 10 μM, and a “no compound” blank is included. Data is collected and analysed using XLfit software from IDBS. The dose response curve is curve fitted to model number 205 (sigmoidal dose-response model). From the curve generated, the concentration giving 50% inhibition is determined and reported.

T1 sequence (P53350 whole entry): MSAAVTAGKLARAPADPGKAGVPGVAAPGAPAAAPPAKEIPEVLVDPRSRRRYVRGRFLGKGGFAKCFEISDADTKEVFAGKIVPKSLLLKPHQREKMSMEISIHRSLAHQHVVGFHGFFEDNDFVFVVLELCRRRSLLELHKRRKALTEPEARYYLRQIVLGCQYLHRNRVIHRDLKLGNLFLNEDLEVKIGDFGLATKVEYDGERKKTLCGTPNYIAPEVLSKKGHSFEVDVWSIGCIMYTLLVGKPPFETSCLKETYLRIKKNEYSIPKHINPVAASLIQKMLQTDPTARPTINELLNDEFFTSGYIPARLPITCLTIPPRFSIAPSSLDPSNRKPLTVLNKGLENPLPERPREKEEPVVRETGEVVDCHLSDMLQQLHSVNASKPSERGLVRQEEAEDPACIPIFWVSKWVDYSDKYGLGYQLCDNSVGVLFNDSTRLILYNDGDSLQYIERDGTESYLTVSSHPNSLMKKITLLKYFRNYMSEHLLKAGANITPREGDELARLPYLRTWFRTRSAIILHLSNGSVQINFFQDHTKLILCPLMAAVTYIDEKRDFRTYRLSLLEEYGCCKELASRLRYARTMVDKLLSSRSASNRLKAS

IC50, < 100 nM:
CC[C@@H]1C(=O)N(C)c2cnc(Nc3ccc(C(=O)NC4CCN(CCCC(=O)N[C@@H](CC(C)C)C(=O)O)CC4)cc3OC)nc2N1C1CCCC1 [Example 18, N-(4-{4-[(4-{[(7R)-8-Cyclopentyl-7-ethyl-5-methyl-6-oxo-5,6,7,8-tetrahydropteridin-2-yl]amino}-3-methoxybenzoyl)amino]piperidin-1-yl}butanoyl)-L-leucine]
CC[C@@H]1C(=O)N(C)c2cnc(Nc3ccc(C(=O)NC4CCN(CCCC(=O)N[C@H](CC(C)C)C(=O)O)CC4)cc3OC)nc2N1C1CCCC1 [Example 19, N-(4-{4-[(4-{[(7R)-8-Cyclopentyl-7-ethyl-5-methyl-6-oxo-5,6,7,8-tetrahydropteridin-2-yl]amino}-3-methoxybenzoyl)amino]Piperidin-1-yl}butanoyl)-D-leucine]
CC[C@@H]1C(=O)N(C)c2cnc(Nc3ccc(C(=O)NC4CCN(CCCC(=O)N[C@H](C(=O)O)c5ccccc5)CC4)cc3OC)nc2N1C1CCCC1 [Example 20, (2S)-[(4-{4-[(4-{[(7R)-8-Cyclopentyl-7-ethyl-5-methyl-6-oxo-5,6,7,8-tetrahydropteridin-2-yl]amino}-3-methoxybenzoyl)amino]piperidin-1-yl}butanoyl)amino](phenyl)acetic acid]
CC[C@@H]1C(=O)N(C)c2cnc(Nc3ccc(C(=O)NC4CCN(CCCC(=O)N[C@@H](C(=O)O)c5ccccc5)CC4)cc3OC)nc2N1C1CCCC1 [Example 21, (2R)-[(4-{4-[(4-{[(7R)-8-Cyclopentyl-7-ethyl-5-methyl-6-oxo-5,6,7,8-tetrahydropteridin-2-yl]amino}-3-methoxybenzoyl)amino]piperidin-1-yl}butanoyl)amino](phenyl)acetic acid]
CC[C@@H]1C(=O)N(C)c2cnc(Nc3ccc(C(=O)NC4CCN(CCCC(=O)N[C@@H](C(=O)O)C5CCCCC5)CC4)cc3OC)nc2N1C1CCCC1 [Example 22, (2R)-Cyclohexyl[(4-{4-[(4-{[(7R)-8-cyclopentyl-7-ethyl-5-methyl-6-oxo-5,6,78-tetrahydropteridin-2-yl]amino}-3-methoxybenzoyl)amino]piperidin-1-yl}butanoyl)amino]acetic acid]
CC[C@@H]1C(=O)N(C)c2cnc(Nc3ccc(C(=O)NC4CCN(CCCCC(=O)N[C@@H](CC(C)C)C(=O)O)CC4)cc3OC)nc2N1C1CCCC1 [Example 23, N-(5-[4-[(4-{[(7R)-8-Cyclopentyl-7-ethyl-5-methyl-6-oxo-5,6,7,8-tetrahydropteridin-2-yl]amino}-3-methoxybenzoyl)amino]piperidin-1-yl]pentanoyl)-L-leucine]
CC[C@@H]1C(=O)N(C)c2cnc(Nc3ccc(C(=O)NC4CCN(CC(=O)N[C@@H](CC(C)C)C(=O)O)CC4)cc3OC)nc2N1C1CCCC1 [Example 24, N-({4-[(4-{[(7R)-8-Cyclopentyl-7-ethyl-5-methyl-6-oxo-5,6,7,8-tetrahydropteridin-2-yl]amino}-3-methoxybenzoyl)amino]piperidin-1-yl}acetyl)-L-leucine]
CC[C@@H]1C(=O)N(C)c2cnc(Nc3ccc(C(=O)NC4CCN(CCNC(=O)N[C@H](C(=O)O)C5CCCCC5)CC4)cc3OC)nc2N1C1CCCC1 [Example 25, (2S)-Cyclohexyl{[(2-{4-[(4-{[(7R)-8-cyclopentyl-7-ethyl-5-methyl-6-oxo-5,6,7,8-tetrahydropteridin-2-yl]amino}-3-methoxybenzoyl)amino]piperidin-1-yl}ethyl)carbamoyl]amino}acetic acid]
CC[C@@H]1C(=O)N(C)c2cnc(Nc3ccc(C(=O)Nc4ccc(CCCC(=O)N[C@@H](CC(C)C)C(=O)O)cc4)cc3OC)nc2N1C1CCCC1 [Example 26, N-(4-{4-[(4-{[(7R)-8-Cyclopentyl-7-ethyl-5-methyl-6-oxo-5,6,7,8-tetrahydropteridin-2-yl]amino}-3-methoxybenzoyl)amino]phenyl}butanoyl)-L-leucine]
